Laboratory results as given in patent US12383566B2, “Inhibition of SLC transporter activity or expression to attenuate anthracycline-induced cardiotoxicity” (Northwestern University, priority 2021, dated 2025).

Experiments:
[1] = test system: hiPSC-CMs; assay: Flow cytometry-based doxorubicin uptake quantification (DOX intrinsic fluorescence); type: cell-based, human; conditions: drug 3 μM, doxorubicin 3 μM
Experimental: Patient-specific doxorubicin-induced cardiotoxicity (DIC) characterization.
Flow cytometry. hiPSCs were dissociated with TrypLE Express (Gibco) for 3 min at RT and 1×10^6 cells were transferred to flow cytometry tubes (Falcon). For staining of surface marker, cells were stained 5 mg ml^−1 (0.5%) BSA (Sigma) in DPBS using 1:20 mouse IgG3 SSEA4-488 (BD Biosciences, 560308) for 30 min at RT then washed twice in DPBS by centrifugation. For intracellular staining, cells were fixed with 4% PFA for 20 min at RT, washed twice with DPBS, and permeabilized with 1% saponin for 15 min at RT, and stained using 1:20 mouse IgG1 POU5F1-647 (BD Biosciences, 560307), and mouse IgG1 NANOG-647 (BD Biosciences, 561300) for 30 min at RT then washed. Isotype controls mouse IgG3-488 (BD Biosciences, 563636) and mouse IgG1-647 (BD Biosciences, 565571) were used to establish gating. Cardiomyocytes were dissociated with Liberase TH as described above, fixed and permeabilized as above, and stained using 1:100 mouse monoclonal IgG1 TNNT2-647 (BD Biosciences, 565744) for 30 min at RT and washed again. Isotype controls mouse IgG1-647 (BD Biosciences, 565571) were used to establish gating. […] All cells were analyzed using a CytoFLEX (Beckman Coulter) with CytExpert 2.0 software.
Flow cytometry-based doxorubicin uptake quantification. On day 14, cardiomyocytes were dissociated and then plated on 12-well plate (2×10^6 per well). […] Cells auto-fluorescence was assayed before doxorubicin treatment and serves as baseline fluorescence.

[2] = test system: hiPSC-CMs; assay: Prestwick drug library screening for cardioprotection against DOX (10 μM, 72 h) by cell viability; type: cell-based, human
Experimental: (§1) FIGS. 5A, 5B, 5C, 5D, 5E, 5F, and 5G. […] All drugs were used at 3 μM. […] LD50, median lethal dose. […] F, Ventricular fractional shortening at baseline, 1-, 2-, 3-weeks post treatment. […] For (D and G) log-logistic non-linear regression model was used to estimate the value of the four parameters, and t-statistic was used to test for significant difference in LD50 between different groups.
(§2) Next, we sought to expand our screening for novel cardioprotectants by testing the cardioprotective role of the Prestwick drug library that includes 1219 drugs.
(§3) 384-well plate-based cell viability, caspase 3/7 activity assays. […] Luminescence was measured using a VarioSkan Lux Multi-Mode Reader (Thermo Scientific) with an integration time of 0.25 sec. Apoptosis was measured using Caspase 3/7-Glo (Promega) respectively according to manufacturer's instructions with an integration time of 1 sec. 10 μM staurosporine (MedChemExpress) was used as a positive control. Data were analyzed using Prism 7.0 software (GraphPad) using standard dose-response guidelines.

[3] = test system: hiPSC-CMs; assay: Validation of top FDA-approved cardioprotectants against 10 log-doses of doxorubicin (viability LD50); type: cell-based, human; conditions: drug 3 μM, 72 h
Experimental: as §1, §2, §3

[4] = test system: Mouse model of doxorubicin-induced cardiomyopathy; assay: Mouse model of doxorubicin-induced cardiomyopathy, echocardiographic evaluation; type: in vivo, C57BL/6J mice; conditions: desipramine 20 mg kg^−1 day^−1 infusion, doxorubicin 3 mg kg^−1 ip twice weekly, three weeks, P<0.05
Excerpt: Procedures followed were in accordance with Stanford University's institutional guidelines. […] For the control group, we treated mice with corn oil in the same schedule as desipramine administration. We recorded an echocardiogram once a week (day 0, day 7, day 14, and day 21) and terminated the experiment at day 21.
For the control group, we treated mice with corn oil in the same schedule as desipramine administration. We recorded an echocardiogram once a week (day 0, day 7, day 14, and day 21) and terminated the experiment at day 21.
Echocardiographic evaluation. Mice were studied at baseline and weekly during the protocol under light anesthesia with isoflurane (induction 3%, maintenance 1.5%). 2D images in the parasternal short axis were obtained with a GE Vivid 7 ultrasound system (GE Healthcare) equipped with a 13 MHz transducer. Left ventricular end-systolic (LVESD) and end-diastolic (LVEDD) dimensions were measured and left ventricular fractional shortening (FS) was calculated.

[5] = test system: eight cancer cell lines (HEPG2, DLD1, LNCAP, SK-UT-1, HeLa, U2OS, Hs 578T, MDA-MB-231) and MCF breast cancer cell line; assay: Cell viability of cancer cell lines after doxorubicin and desipramine co-treatment; type: cell-based, human; conditions: eight cancer cell lines (breast, liver, colorectal, prostate, uterus, cervix, bone)
Experimental: as §1
Breast cancer cell lines.

[6] = test system: sodium channel; conditions: among its group (tricyclic antidepressants); cited from earlier work
[7] = chronic use; cited from earlier work
[8] = in vivo; cited from earlier work

In the case of `CNCCCN1c2ccccc2CCc2ccccc21` [desipramine, 3-(5,6-dihydrobenzo[b][1]benzazepin-11-yl)-N-methylpropan-1-amine], the “DOX uptake in cells co-treated with drug plus doxorubicin as compared to doxorubicin only” value ([1]; after 1 h (P=0.008)) is reported as “significantly lower”, the “DOX uptake in cells co-treated with drug plus doxorubicin as compared to doxorubicin only” value ([1]; after 3 h (P=0.04)) is reported as “significantly lower” and the “rank among cardioprotective drugs in Prestwick library screening” value ([2]; drug 3 μM (24 h pre-treatment + co-treatment)) is reported as “top ten significant cardio-protectants”. The “protection against DOX-induced cardiomyocyte death” value ([2]; drug 3 μM, vs DOX alone, P=0.007) was 2.5 fold, the “LD50 of doxorubicin with cardioprotective drug co-treatment” value [3] was 10.66 µM and the “cardiac function (fractional shortening) attenuation by doxorubicin with drug compared with vehicle” value [4] was “significantly less attenuated”. The “effect of co-treatment on anticancer efficacy of DOX” value [5] was “did not impede the anticancer efficacy of DOX”, the sodium channel blockade [6] was “most potent sodium channel blocker among its group” and the cardiotoxicity [7] was “causing cardiotoxicity when used chronically”. For the same compound, the typical therapeutic concentration [8] was 100 to 300 ng/mL.
